Results on 24 compounds are retold here after ChEMBL document CHEMBL1765032, “β-Branched acyclic nucleoside analogues as inhibitors of Plasmodium falciparum dUTPase” (Bioorg Med Chem, 2011).

A short description of data set [1]: Inhibition of Plasmodium falciparum dUTPase by spectrophotometric analysis.
Data set [2] has as its target T1, Deoxyuridine 5'-triphosphate nucleotidohydrolase, mitochondrial (Homo sapiens, UniProt P33316).
T1 sequence (P33316 whole entry): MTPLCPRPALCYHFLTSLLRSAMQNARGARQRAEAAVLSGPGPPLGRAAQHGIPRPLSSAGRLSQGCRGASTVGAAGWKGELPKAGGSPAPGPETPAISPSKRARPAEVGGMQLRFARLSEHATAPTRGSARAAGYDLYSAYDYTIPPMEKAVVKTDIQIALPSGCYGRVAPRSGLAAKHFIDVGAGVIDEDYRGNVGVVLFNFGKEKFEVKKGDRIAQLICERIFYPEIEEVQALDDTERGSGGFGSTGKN
Nature of the data set: Inhibition of human dUTPase by spectrophotometric analysis.

For data set [3], the system named is L6. Nature of the data set: Cytotoxicity against rat L6 cells after 72 hrs by alamar blue assay. Type of data set: cell-based. Conditions: L6, 72 h. On the technique in general: Resazurin is reduced to fluorescent resorufin, in cell work by metabolically active cells.
In data set [4] the test system is Plasmodium falciparum. Nature of the data set: microbe, parasite or virus in culture. Conditions: K1.
The nature of data set [5]: Selectivity index, ratio of EC50 for rat L6 cells to EC50 for chloroquine-resistant erythrocytic stage of Plasmodium falciparum K1. Type of data set: toxicity, cell-based. As to conditions: read-out: Ratio EC50.

As to `CN(C)C(=O)C(CCOC(c1ccccc1)(c1ccccc1)c1ccccc1)Cn1ccc(=O)[nH]c1=O` (racemic), the Ki (in general, a measure of affinity in units of concentration, obtained from inhibition or displacement) is 2.7 µM in data set [1] and above 100 µM in data set [2].
For `O=c1ccn([C@H]2C[C@H](O)[C@@H](COC(c3ccccc3)(c3ccccc3)c3ccccc3)O2)c(=O)[nH]1`, the EC50 (commonly the concentration giving half of the maximal effect) in data set [3] came out at 192 µM; in data set [4] it was 6 µM.
Take `O=C(O)CCNC(=O)C(CCOC(c1ccccc1)(c1ccccc1)c1ccccc1)Cn1ccc(=O)[nH]c1=O` (racemic): the Ki in data set [1] is 0.2 µM; in data set [2], above 100 µM.
Consider `CN1CCN(C(=O)C(CCOC(c2ccccc2)(c2ccccc2)c2ccccc2)Cn2ccc(=O)[nH]c2=O)CC1` (racemic), for which the Ki in data set [1] was 5.6 µM; in data set [2], above 100 µM.
Taken in the same sequence, the figures for `CC(C)(C)[Si](OCCC(Cn1ccc(=O)[nH]c1=O)C(=O)O)(c1ccccc1)c1ccccc1` (racemic) were 1.6 µM and above 100 µM.
`O=C(NCCO)C(CCOC(c1ccccc1)(c1ccccc1)c1ccccc1)Cn1ccc(=O)[nH]c1=O` (racemic) came in with a Ki in data set [2] above 100 µM.
`CCOC(=O)CCNC(=O)C(CCOC(c1ccccc1)(c1ccccc1)c1ccccc1)Cn1ccc(=O)[nH]c1=O` (racemic): the Ki in data set [1] is 0.5 µM; in data set [2], above 100 µM.
Turning to `COCCNC(=O)C(CCOC(c1ccccc1)(c1ccccc1)c1ccccc1)Cn1ccc(=O)[nH]c1=O` (racemic), the Ki was 1.4 µM in data set [1] and above 100 µM in data set [2].
Take `O=c1ccn(CC(CO)CCOC(c2ccccc2)(c2ccccc2)c2ccccc2)c(=O)[nH]1` (racemic): the results for the EC50 in data set [3] and in data set [4] were 33 µM and 1.2 µM, respectively.
For the compound `CCNC(=O)C(CCO[Si](c1ccccc1)(c1ccccc1)C(C)(C)C)Cn1ccc(=O)[nH]c1=O` (racemic), the figures for the Ki in data set [1] and in data set [2] were 5.7 µM and above 100 µM, respectively.
Taken in the same sequence, the figures for `CNC(=O)C(CCO[Si](c1ccccc1)(c1ccccc1)C(C)(C)C)Cn1ccc(=O)[nH]c1=O` (racemic) were 3.6 µM and above 100 µM.
With `O=c1ccn(CCCCOC(c2ccccc2)(c2ccccc2)c2ccccc2)c(=O)[nH]1`, the EC50 came to 42 µM in data set [3] and 4.9 µM in data set [4].
Consider `CC(C)(C)[Si](OCCNC(=O)C(CCOC(c1ccccc1)(c1ccccc1)c1ccccc1)Cn1ccc(=O)[nH]c1=O)(c1ccccc1)c1ccccc1` (racemic), for which the figures for the Ki in data set [1] and in data set [2] were above 10 µM and above 100 µM, respectively.
Take `O=C(OCc1ccccc1)OCC(CCNC(c1ccccc1)(c1ccccc1)c1ccccc1)Cn1ccc(=O)[nH]c1=O` (racemic): the figures for the Ki in data set [1] and in data set [2] were 6.5 µM and above 100 µM, respectively.
In the case of `NC(=O)C(CCNC(c1ccccc1)(c1ccccc1)c1ccccc1)Cn1ccc(=O)[nH]c1=O` (racemic), the Ki was found to be 5.5 µM in data set [1] and 98 µM in data set [2]. Moreover, the values for the EC50 in data set [3] and in data set [4] were 177 µM and 1.1 µM, respectively. Also, in data set [5], the selectivity ratio turned out to be 161.
Take `O=C(C(CCOC(c1ccccc1)(c1ccccc1)c1ccccc1)Cn1ccc(=O)[nH]c1=O)N1CCOCC1` (racemic): the Ki was 2.1 µM in data set [1] and above 100 µM in data set [2].
Take `CN(C)CCNC(=O)C(CCOC(c1ccccc1)(c1ccccc1)c1ccccc1)Cn1ccc(=O)[nH]c1=O` (racemic): the Ki in data set [1] was 7.8 µM; in data set [2] it was above 100 µM.
Take `CCN(CC)C(=O)C(CCO[Si](c1ccccc1)(c1ccccc1)C(C)(C)C)Cn1ccc(=O)[nH]c1=O` (racemic): the inhibitory constant (Ki) in data set [1] was 20 µM; in data set [2], above 100 µM.
Take `O=C(O)C(CCNC(c1ccccc1)(c1ccccc1)c1ccccc1)Cn1ccc(=O)[nH]c1=O` (racemic): the Ki in data set [1] amounted to 7.2 µM; in data set [2], 90 µM. Also, the EC50 in data set [3] was 51 µM; in data set [4] it was 1.3 µM. For the same compound, the selectivity ratio in data set [5] is 39.
On to `O=c1ccn([C@H]2C[C@H](O)[C@@H](CNC(c3ccccc3)(c3ccccc3)c3ccccc3)O2)c(=O)[nH]1`, for which the EC50 turned out to be 44 µM in data set [3] and 4.5 µM in data set [4].
Regarding `CC(C)(C)[Si](OCCC(Cn1ccc(=O)[nH]c1=O)C(=O)N1CCN(C(=O)OCc2ccccc2)CC1)(c1ccccc1)c1ccccc1` (racemic), the Ki in data set [1] was 98 µM; in data set [2], above 100 µM.
For `NC(=O)C(CCOC(c1ccccc1)(c1ccccc1)c1ccccc1)Cn1ccc(=O)[nH]c1=O` (racemic) the same measures were 1.3 µM and above 100 µM.
As for `COc1cc([C@@H]2c3cc4c(cc3[C@H](O)[C@H]3COC(=O)[C@H]23)OCO4)cc(OC)c1OC` [PODOFILOX], in data set [4], it took 0.012 µM to reach a half-maximal effect (EC50).
For `CC(C)(C)[Si](OCCC(Cn1ccc(=O)[nH]c1=O)C(N)=O)(c1ccccc1)c1ccccc1` (racemic), the values for the Ki in data set [1] and in data set [2] were 5 µM and above 100 µM, respectively.
